The target in this assay is T1, ΔF508-CFTR (Homo sapiens, UniProt P13569, DEL508-508).
T1 construct: Primary lung epithelial cells homozygous for the Cystic Fibrosis-causing ΔF508 mutation were differentiated; endogenous in cells; host or cells: primary lung (bronchial) epithelial cells (hBE) homozygous for ΔF508, differentiated at an air-liquid interface
Briefly: hBE equivalent current (Ieq) assay. The format is cell-based. Particulars: AUC of equivalent chloride current, % of CFTR amplifier (Compound A)+VX-809 (3 uM); compound at 10 uM and Compound A at 3 uM; primary lung epithelial cells homozygous ΔF508, 24 hours treatment. How it is done:
ii. hBE Equivalent Current (Ieq) Assay
Primary lung epithelial cells homozygous for the Cystic Fibrosis-causing ΔF508 mutation were differentiated for a minimum of 4 weeks in an air-liquid interface on Costar 24 well HTS filter plates prior to the equivalent current (Ieq) measurements. Cells were apically mucus-washed for 30 minutes 24 h prior to treatment with compounds. The basolateral media was removed and replaced with media containing the compound of interest diluted to its final concentration from DMSO stocks. Treated cells were incubated at 37° C. and 5% CO2 for 24 hours. At the end of the treatment period, the media was changed to the Ieq experimental solution for 2 hours before the experiment and plates are maintained in a CO2-free incubator during this period. The plates containing the cells were then placed in pre-warmed heating blocks at 36° C.±0.5 for 15 minutes before measurements are taken. The transepithelial voltage (VT) and conductance (Gr) were measured using a custom 24 channel current clamp (TECC-24) with 24 well electrode manifold. The Ieq assay measurements were made following additions with standardized time periods: • 1. The baseline VT and Gr values were measured for approximately 20 minutes. • 2. Benzamil was added to block ENaC for 15 minutes. • 3. Forskolin plus VX-770 were added to maximally activate ΔF508-CFTR for 27 minutes. • 4. Bumetanide was added to inhibit the NaK2Cl cotransporter and shut-off secretion of chloride.
The activity data captured was the area under the curve (AUC) for the traces of the equivalent chloride current. The AUC was collected from the time of the forskolin/VX-770 addition until the inhibition by bumetanide addition. Correction in response to compound treatment was scored as the increase in the AUC for compound-treated samples over that of vehicle-treated samples.
(+ indicates activity <100% of a CFTR amplifier (Compound A)+VX-809 (3 uM) with compound at 10 uM and Compound A at 3 uM; ++ indicates activity ≥100% and <200% of CFTR amplifier+VX-809 (3 uM) with compound at 10 uM and Compound A at 3 uM; +++ indicates activity >200% of CFTR amplifier+VX-809 (3 uM) with compound at 10 uM and Compound A at 3 uM.

T1 sequence (P13569 with tags, fused parts or gaps DEL508-508): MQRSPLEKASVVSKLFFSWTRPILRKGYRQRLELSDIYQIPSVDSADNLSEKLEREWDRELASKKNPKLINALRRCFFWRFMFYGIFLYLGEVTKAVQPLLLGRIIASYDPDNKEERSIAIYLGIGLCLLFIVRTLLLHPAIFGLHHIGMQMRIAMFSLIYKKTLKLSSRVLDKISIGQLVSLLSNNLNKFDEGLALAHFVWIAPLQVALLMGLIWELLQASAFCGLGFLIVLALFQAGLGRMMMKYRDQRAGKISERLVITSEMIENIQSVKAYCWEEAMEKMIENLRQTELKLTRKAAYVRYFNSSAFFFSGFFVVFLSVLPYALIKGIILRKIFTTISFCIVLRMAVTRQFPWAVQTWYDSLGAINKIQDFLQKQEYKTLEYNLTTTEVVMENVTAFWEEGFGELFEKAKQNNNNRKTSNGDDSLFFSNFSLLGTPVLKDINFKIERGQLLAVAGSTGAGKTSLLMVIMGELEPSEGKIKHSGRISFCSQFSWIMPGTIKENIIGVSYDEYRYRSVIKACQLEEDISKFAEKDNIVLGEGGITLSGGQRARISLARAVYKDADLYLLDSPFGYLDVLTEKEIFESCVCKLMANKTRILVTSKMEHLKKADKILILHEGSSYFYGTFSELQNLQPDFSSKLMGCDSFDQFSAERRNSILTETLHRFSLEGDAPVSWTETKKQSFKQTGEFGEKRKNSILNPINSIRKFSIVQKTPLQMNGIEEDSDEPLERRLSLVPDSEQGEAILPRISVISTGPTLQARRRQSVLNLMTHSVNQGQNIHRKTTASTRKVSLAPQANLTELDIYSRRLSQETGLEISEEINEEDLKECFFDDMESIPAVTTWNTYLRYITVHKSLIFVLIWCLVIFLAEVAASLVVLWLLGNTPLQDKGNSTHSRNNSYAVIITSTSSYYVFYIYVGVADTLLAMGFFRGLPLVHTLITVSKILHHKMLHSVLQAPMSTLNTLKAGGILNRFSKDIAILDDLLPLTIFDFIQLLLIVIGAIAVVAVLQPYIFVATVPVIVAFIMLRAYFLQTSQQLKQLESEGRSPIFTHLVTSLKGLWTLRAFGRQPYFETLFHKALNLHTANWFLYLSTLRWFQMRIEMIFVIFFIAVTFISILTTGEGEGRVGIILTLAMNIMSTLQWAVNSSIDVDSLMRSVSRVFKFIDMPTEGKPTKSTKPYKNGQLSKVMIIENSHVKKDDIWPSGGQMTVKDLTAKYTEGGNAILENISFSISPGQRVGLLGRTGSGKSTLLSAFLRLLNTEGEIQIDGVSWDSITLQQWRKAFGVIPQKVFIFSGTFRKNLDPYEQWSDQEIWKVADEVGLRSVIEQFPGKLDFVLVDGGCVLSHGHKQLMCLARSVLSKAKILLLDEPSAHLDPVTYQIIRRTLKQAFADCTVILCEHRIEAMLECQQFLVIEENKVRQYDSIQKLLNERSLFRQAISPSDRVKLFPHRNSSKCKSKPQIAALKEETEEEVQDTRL

Consider `Cc1c(-c2cc(C(=O)NS(C)(=O)=O)c3c(O[C@H](C)c4ccccc4)ccc(C)c3n2)sc2ccccc12` [Compound 1], for which the Activity result was “+++ (activity >200% of CFTR amplifier+VX-809 (3 uM) with compound at 10 uM and Compound A at 3 uM)”.

`Cc1c(-c2cc(C(=O)NS(C)(=O)=O)c3c(O[C@H](C)c4ccccc4)ccc(C)c3n2)oc2ccccc12` [Compound 2]: the Activity entry was “+++ (activity >200% of CFTR amplifier+VX-809 (3 uM) with compound at 10 uM and Compound A at 3 uM)”.

As to `Cc1c(-c2cc(C(=O)NS(=O)(=O)C3CC3)c3c(O[C@H](C)c4ccccc4)ccc(C)c3n2)sc2ccccc12` [Compound 3], the Activity result is “++ (activity ≥100% and <200% of CFTR amplifier+VX-809 (3 uM) with compound at 10 uM and Compound A at 3 uM)”.

In the case of `Cc1c(-c2cc(C(=O)NS(=O)(=O)C3CC3)c3c(O[C@H](C)c4ccccc4)ccc(C)c3n2)oc2ccccc12` [Compound 4], the Activity entry was “++ (activity ≥100% and <200% of CFTR amplifier+VX-809 (3 uM) with compound at 10 uM and Compound A at 3 uM)”.

For the molecule `Cc1c(-c2cc(C(=O)NS(=O)(=O)N3CCOCC3)c3c(O[C@H](C)c4ccccc4)ccc(C)c3n2)sc2ccccc12` [Compound 7], the Activity entry is “+++ (activity >200% of CFTR amplifier+VX-809 (3 uM) with compound at 10 uM and Compound A at 3 uM)”.

In the case of `Cc1c(-c2cc(C(=O)NS(=O)(=O)N3CCOCC3)c3c(O[C@H](C)c4ccccc4)ccc(C)c3n2)oc2ccccc12` [Compound 8], the Activity result was “+ (activity <100% of a CFTR amplifier (Compound A)+VX-809 (3 uM) with compound at 10 uM and Compound A at 3 uM)”.

As to `Cc1c(-c2cc(C(=O)NS(=O)(=O)c3ccccc3)c3c(O[C@H](C)c4ccccc4)ccc(C)c3n2)sc2ccccc12` [Compound 9], the Activity result was “++ (activity ≥100% and <200% of CFTR amplifier+VX-809 (3 uM) with compound at 10 uM and Compound A at 3 uM)”.

Turning to `Cc1c(-c2cc(C(=O)NS(=O)(=O)c3ccccc3)c3c(O[C@H](C)c4ccccc4)ccc(C)c3n2)oc2ccccc12` [Compound 10], the Activity entry was “++ (activity ≥100% and <200% of CFTR amplifier+VX-809 (3 uM) with compound at 10 uM and Compound A at 3 uM)”.

With `Cc1c(-c2cc(C(=O)NS(=O)(=O)c3cccc(N)n3)c3c(O[C@H](C)c4ccccc4)ccc(C)c3n2)sc2ccccc12` [Compound 11], the Activity entry is “++ (activity ≥100% and <200% of CFTR amplifier+VX-809 (3 uM) with compound at 10 uM and Compound A at 3 uM)”.

For the molecule `Cc1c(-c2cc(C(=O)NS(=O)(=O)c3cccc(N)n3)c3c(O[C@H](C)c4ccccc4)ccc(C)c3n2)oc2ccccc12` [Compound 12], the Activity entry is “++ (activity ≥100% and <200% of CFTR amplifier+VX-809 (3 uM) with compound at 10 uM and Compound A at 3 uM)”.

Turning to `Cc1c(-c2cc(C(=O)NS(=O)(=O)c3cccc(N)c3)c3c(O[C@H](C)c4ccccc4)ccc(C)c3n2)sc2ccccc12` [Compound 13], the Activity entry is “+++ (activity >200% of CFTR amplifier+VX-809 (3 uM) with compound at 10 uM and Compound A at 3 uM)”.

With `Cc1c(-c2cc(C(=O)NS(=O)(=O)c3cccc(N)c3)c3c(O[C@H](C)c4ccccc4)ccc(C)c3n2)oc2ccccc12` [Compound 14], the Activity entry is “+++ (activity >200% of CFTR amplifier+VX-809 (3 uM) with compound at 10 uM and Compound A at 3 uM)”.

Regarding `Cc1c(-c2cc(C(=O)NS(=O)(=O)N3CC[C@H](N)C3)c3c(O[C@H](C)c4ccccc4)ccc(C)c3n2)sc2ccccc12` [Compound 15], the Activity result was “++ (activity ≥100% and <200% of CFTR amplifier+VX-809 (3 uM) with compound at 10 uM and Compound A at 3 uM)”.

`Cc1c(-c2cc(C(=O)NS(=O)(=O)N3CC[C@H](N)C3)c3c(O[C@H](C)c4ccccc4)ccc(C)c3n2)oc2ccccc12` [Compound 16]: the Activity entry was “+++ (activity >200% of CFTR amplifier+VX-809 (3 uM) with compound at 10 uM and Compound A at 3 uM)”.

In the case of `Cc1c(-c2cc(C(=O)NS(=O)(=O)c3cnc(N)s3)c3c(O[C@H](C)c4ccccc4)ccc(C)c3n2)sc2ccccc12` [Compound 17], the Activity result was “+++ (activity >200% of CFTR amplifier+VX-809 (3 uM) with compound at 10 uM and Compound A at 3 uM)”.

In the case of `Cc1c(-c2cc(C(=O)NS(=O)(=O)c3cnc(N)s3)c3c(O[C@H](C)c4ccccc4)ccc(C)c3n2)oc2ccccc12` [Compound 18], the Activity result is “+ (activity <100% of a CFTR amplifier (Compound A)+VX-809 (3 uM) with compound at 10 uM and Compound A at 3 uM)”.

(Values after patent publication US20200055844A1, “4-SULFONYLAMINOCARBONYLQUINOLINE DERIVATIVES FOR INCREASING CFTR ACTIVITY” (Proteostasis Therapeutics, Inc., priority 2017, published 2020).)
